Reference: patent publication US20110294789A1, “COMPOUNDS FOR RHO KINASE INHIBITION AND FOR IMPROVING LEARNING AND MEMORY” (AMNESTIX, INC., priority 2008, published 2011)
“Also recorded” adds a separate entry of the source.

Key:
[1] = test system: hippocampal slices; assay: In vitro LTP analysis (theta burst stimulation, fEPSP slope); format: cell-based, Wistar rats
Excerpt: Long-term potentiation (LTP) is an in vitro model for the assessment of memory function. Therefore, it allows analysis of test compounds, e.g. the compounds of the invention, e.g. 1-(8-methyl-5 isoquinoline-sulfonyl)homopiperazine and 1-(1-chloro-8-methoxy-5 isoquinoline-sulfonyl)homopiperazine, for memory enhancing potential. Experiments were done on hippocampal slices from 3-4 week-old Wistar rats. The rats were sacrificed by decapitation without prior anesthesia. Brains were quickly removed and soaked in ice cold artificial cerebrospinal fluid (ACSF) containing: NaCl (124 mM), KCl (5 mM), Na2HPO4 (1.2 mM), NaHCO3 (26 mM), CaCl2 (2 mM), MgSO4 (2 mM), and glucose (10 mM), that was continuously bubbled with carbogen (95% O2, 5% CO2). Slices were then cut at 400 μm thickness using a vibratome and incubated in ACSF at room temperature for at least 1 h before starting recordings. All compounds used were diluted in ACSF at the concentrations needed and were prepared fresh on the day of recording from 100 mM stock solutions. To assure proper solubility of the compounds, stock solutions were made with DMSO. For recording, slices were transferred to a 4-channel slice chamber (Synchroslice, Lohmann Research Equipment) that allows simultaneous recording of 4 brain slices. Each slice was placed in a separate submerged type slice chamber were it was continuously superfused with temperature controlled (34° C.) ACSF or ACSF at a rate of 2 ml/min. Under visual control by a camera system, a bipolar stimulation electrode (Rhoades) was placed in the Schaffer collaterals and a single biphasic electrical stimulus of a duration of 200 μs and an amplitude of 200 μA was applied at 0.05 Hz. A platinum/tungsten electrode was then lowered into the CA1 dendritic layer under visual control until stable amplitudes of the recorded fEPSP were achieved. After a recording period of at least 10 min, the input-output relationship between stimulus amplitude and fEPSP amplitude was achieved separately for each slice. […] To induce LTP, 10 theta bursts were applied. Each burst consisted of 4 biphasic stimuli of […] and 600 μA amplitude at a 10 ms interstimulus interval. The interburst interval was 200 ms. Each recording cycle started with a 15 min period in which electrical stimuli were applied at 0.05 Hz to assure stability of the fEPSP amplitude. Then, test the compound was washed in for a period of 30 min during which stimulation was continued at 0.05 Hz and fEPSPs were continuously recorded. LTP induction by theta burst stimulation was started 30 min after wash in. Recording was continued after LTP induction for at least 60 min, 30 min after LTP induction, compounds were washed out. All slices recorded simultaneously were treated with the same time schedule. From the recorded data, the amplitudes of the evoked fEPSP were automatically calculated by the recording software (Synchroslice data acquisition and analysis, LRE) as the negative peak of the postsynaptic signal with respect to baseline and plotted online. All recorded signals were digitally stored for later offline analysis, in particular for fEPSP negative slope calculation. From the stored single sweeps, the slope was calculated between 30% and 70% of the maximum fEPSP amplitude. To allow comparison of data obtained from different slices, fEPSP slopes were normalized to the control value (100%).
Effects induced by applied substances were tested for statistical significance using either the Student's t-test or the Mann-Whitney Rank Sum Test, significance was assumed if p<0.05. Measurements for each experimental condition were repeated six times. Results are given as means from n=5 slices and standard deviation (SD). […] This could be due to the activation of undesired kinases and/or pathways at this concentration. […]

[2] = test system: Hippocampal primary neurons; assay: Neurite outgrowth analysis; format: cell-based, rats; settings: 1.5 μM or 15 μM, 2 days in culture; versus negative control and Fasudil; FIG. 15
Protocol: The effect of test compounds on neurite outgrowth can be assessed in vitro. Hippocampal primary neurons prepared from embryonic (E18) rats were cultured in Neurobasal medium (Invitrogen) enriched with B27, bFGF, Penicillin/Streptomycin, L-Glutamin. For the neurite outgrowth assay the medium is mixed with conditioned medium in a 1:1 ratio. The neurites were immunocytochemically stained using an antibody against the axonal marker neurofilament-light. Photographs were acquired at 40-fold magnification (Olympus IX81) and assembled to allow analysis of whole individual neurons. The test compounds 1-(8-methyl-5 isoquinoline-sulfonyl)homopiperazine and 1-(1-chloro-8-methoxy-5 isoquinoline-sulfonyl)homopiperazine were added to the medium in the final concentration of 1.5 μM or 15 μM 1 h after plating in comparison to adding water which served as negative control. […] After 2 days in culture the cells were fixed. Photographs and neurite tracing were performed in a blinded manner.

[3] = molecular target: T1, IRAK1 (Homo sapiens, UniProt P51617); assay: KinomeScan competition binding assay; settings: 10 μM; competition of more than 50% regarded as inhibitory
T1 construct: purchased Ambit, San Diego, Calif., USA (KinomeScan)
T1 sequence (P51617 whole entry): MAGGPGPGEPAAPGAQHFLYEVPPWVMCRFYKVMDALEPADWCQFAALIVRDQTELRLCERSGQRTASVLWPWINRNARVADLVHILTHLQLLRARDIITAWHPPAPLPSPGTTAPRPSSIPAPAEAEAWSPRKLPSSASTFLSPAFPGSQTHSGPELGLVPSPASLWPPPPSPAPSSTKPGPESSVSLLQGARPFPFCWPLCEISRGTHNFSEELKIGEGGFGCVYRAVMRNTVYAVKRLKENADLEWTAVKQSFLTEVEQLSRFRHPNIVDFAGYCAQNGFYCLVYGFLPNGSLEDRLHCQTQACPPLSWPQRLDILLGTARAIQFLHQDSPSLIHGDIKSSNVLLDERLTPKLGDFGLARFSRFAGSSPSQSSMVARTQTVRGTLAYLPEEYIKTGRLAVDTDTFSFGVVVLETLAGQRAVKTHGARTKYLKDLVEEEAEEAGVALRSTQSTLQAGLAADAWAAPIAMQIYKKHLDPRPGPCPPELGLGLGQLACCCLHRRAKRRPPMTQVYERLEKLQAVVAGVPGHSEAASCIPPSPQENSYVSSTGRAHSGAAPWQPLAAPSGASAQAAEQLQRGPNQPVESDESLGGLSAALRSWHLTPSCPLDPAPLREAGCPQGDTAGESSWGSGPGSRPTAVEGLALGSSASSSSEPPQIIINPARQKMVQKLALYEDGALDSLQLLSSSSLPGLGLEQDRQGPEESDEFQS
Excerpt: (§1) Based on a competition binding assay that quantitatively measures the ability of a test compound to compete with an immobilized, active-site directed ligand it is possible to scan the competitive effect of the test compound for a broad variety of kinases in parallel (KinomeScan, Ambit, San Diego, Calif., USA; Fabian et al., Nat. Biotechnol. 2005, 23, 329). Based on this analysis it is possible to assess the inhibitory specificity of a test compound. […] As result of the assay one obtains the percentage of competition of the active-site directed ligand for each of the over 400 kinases of the test due to the incubation with the test compounds. Competitions of more than 50% were regarded as significant indicating for inhibition of the particular kinase.

[4] = test system: PIM kinases; assay: KinomeScan competition binding assay; settings: 10 μM; competition of more than 50% regarded as inhibitory
Excerpt: as §1

[5] = molecular target: over 400 kinases; assay: KinomeScan competition binding assay, kinase specificity; settings: 10 μM; competition of more than 50% regarded as inhibitory; FIG. 13A
Excerpt: as §1

[6] = molecular target: T2, recombinant active rho kinase 2 (ROCK) (Homo sapiens, UniProt O75116); assay: ROCK inhibition assay (ROCK assay kit, anti-phospho-MYPT1 detection); format: biochemical; settings: test compounds 0.1 to 100 μM; compared to Fasudil in corresponding concentration; FIG. 12
T2 construct: purchased Upstate, Lake Placid, N.Y., USA (enzyme); Cell Biolabs Inc., San Diego (assay kit with substrate)
T2 sequence (O75116 whole entry): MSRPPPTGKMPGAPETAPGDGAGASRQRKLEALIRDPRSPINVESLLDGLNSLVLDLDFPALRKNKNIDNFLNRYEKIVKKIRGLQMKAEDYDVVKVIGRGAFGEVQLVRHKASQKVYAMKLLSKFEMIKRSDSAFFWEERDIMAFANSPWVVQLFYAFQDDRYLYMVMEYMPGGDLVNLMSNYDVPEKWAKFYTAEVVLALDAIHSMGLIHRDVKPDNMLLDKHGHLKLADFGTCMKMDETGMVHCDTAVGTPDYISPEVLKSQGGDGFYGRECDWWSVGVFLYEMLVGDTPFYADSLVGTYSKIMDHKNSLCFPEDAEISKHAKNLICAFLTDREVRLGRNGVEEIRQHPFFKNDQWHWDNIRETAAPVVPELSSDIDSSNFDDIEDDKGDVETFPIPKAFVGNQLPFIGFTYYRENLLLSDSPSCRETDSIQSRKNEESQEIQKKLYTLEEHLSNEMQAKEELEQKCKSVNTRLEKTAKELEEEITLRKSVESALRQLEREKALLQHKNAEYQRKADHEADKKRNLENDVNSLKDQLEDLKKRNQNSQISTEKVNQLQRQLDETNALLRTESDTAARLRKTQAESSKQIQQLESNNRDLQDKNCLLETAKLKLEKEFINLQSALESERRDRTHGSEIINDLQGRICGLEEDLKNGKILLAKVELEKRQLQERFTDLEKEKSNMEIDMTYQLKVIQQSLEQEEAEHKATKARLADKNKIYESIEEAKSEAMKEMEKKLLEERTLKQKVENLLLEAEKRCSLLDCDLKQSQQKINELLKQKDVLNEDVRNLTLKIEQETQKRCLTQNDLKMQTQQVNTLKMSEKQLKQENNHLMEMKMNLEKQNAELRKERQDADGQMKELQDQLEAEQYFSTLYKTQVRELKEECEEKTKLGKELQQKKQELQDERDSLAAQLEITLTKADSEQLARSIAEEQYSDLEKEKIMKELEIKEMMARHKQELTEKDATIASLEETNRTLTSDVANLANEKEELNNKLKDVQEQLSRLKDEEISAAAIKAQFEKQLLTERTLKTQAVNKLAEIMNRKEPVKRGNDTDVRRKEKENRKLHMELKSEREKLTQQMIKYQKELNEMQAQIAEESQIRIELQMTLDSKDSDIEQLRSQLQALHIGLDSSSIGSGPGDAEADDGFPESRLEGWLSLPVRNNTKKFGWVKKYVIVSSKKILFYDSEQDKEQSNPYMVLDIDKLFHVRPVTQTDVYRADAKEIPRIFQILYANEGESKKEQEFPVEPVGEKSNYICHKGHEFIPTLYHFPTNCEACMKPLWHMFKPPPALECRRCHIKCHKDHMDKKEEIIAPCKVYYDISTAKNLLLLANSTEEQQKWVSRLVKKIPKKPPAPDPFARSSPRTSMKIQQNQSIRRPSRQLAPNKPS
Protocol: The inhibitory effect of test compounds on rho kinase 2 (ROCK) was analyzed using recombinant active rho kinase 2 (Upstate, Lake Placid, N.Y., USA) and the a ROCK assay kit (Cell Biolabs Inc., San Diego, Calif., USA) following the manufacture's instruction. Recombinant rho kinase 2 was dissolved in kinase reaction buffer including the kinase substrate in the presence of the test compound. Test compounds were added in a final concentration of 0.1 to 100 μM. Assays without test compound served as control. […] Assays were incubated at 30° C. for 30-60 min and subsequently stopped by adding 50% of the reaction-volume of 0.5 M EDTA, pH 8.0. After washing steps phosphorylated kinase substrate was quantified using a specific anti-phospho-MYPT1 (Thr696) antibody and a HRP-conjugated secondary antibody.

[7] = test system: undifferentiated PC12 cells; settings: Zhang et al. 2006; cited from earlier work
[8] = Huentelman et al. 2009; WO 2008/019395; cited from earlier work
[9] = molecular target: T3, ROCK2 (Homo sapiens, UniProt O75116); assay: KinomeScan competition binding assay; settings: 10 μM; compared to Fasudil
T3 construct: purchased Ambit, San Diego, Calif., USA (KinomeScan)
T3 sequence (O75116 whole entry): as above
Excerpt: as §1

| Compound | enhancement of LTP (overall conclusion) [1] | effect on LTP ([1]; 1 μM) | effect on LTP ([1]; 10 μM) | effect on LTP ([1]; 100 μM) | synaptic activity upon removal of the substance ([1]; 100 μM, after wash out) | neurite outgrowth promoting activity [2] | inhibitory effect for IRAK1 [3] | inhibitory effect for PIM kinases [4] | kinase specificity / kinase interaction spectrum [5] | ROCK inhibition (rho kinase 2 activity) [6] | neurite outgrowth [7] | learning and memory [8] | affinity to ROCK2 [9] |
| --- | --- | --- | --- | --- | --- | --- | --- | --- | --- | --- | --- | --- | --- |
| COc1ccc(S(=O)(=O)N2CCCNCC2)c2ccnc(Cl)c12 [1-(1-chloro-8-methoxy-5 isoquinoline-sulfonyl)homopiperazine] | significant enhancement of LTP | clearly superior LTP stimulating effect compared to fasudil | LTP induction is unaltered but the maintenance seems to be impaired | LTP induction is blocked completely | clear rebound of synaptic activity | did not significantly promote neurite outgrowth | mainly inhibitory effect only for PIM kinases and IRAK1 | mainly inhibitory effect only for PIM kinases and IRAK1 | much more specific ROCK inhibitor than Fasudil; also recorded: very specific ROCK inhibitor | enhanced ROCK inhibition compared to Fasudil | – | – | – |
| O=S(=O)(c1cccc2cnccc12)N1CCCNCC1 [Fasudil] | – | – | – | – | – | – | – | – | – | – | increase neurite outgrowth | can enhance learning and memory | – |
| Cc1ccc(S(=O)(=O)N2CCCNCC2)c2ccncc12 [1-(8-methyl-5 isoquinoline-sulfonyl)homopiperazine] | – | blocks LTP | – | the ability of LTP induction is re-established | – | superior neurite outgrowth promoting activity | – | – | broader kinase interaction spectrum comparable to that of Fasudil | enhanced ROCK inhibition compared to Fasudil | – | – | much stronger affinity to ROCK2 than Fasudil |
